Measurements: PubChem BioAssay AID463199 (Broad Institute, 2010)
Calls of active or inactive are those of the source.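 Rule for the calls: active = AC50, the dose giving half-maximal effect, exceeds a fixed cutoff for a compound that rescues yeast growth under heat; inactive = the rest, inconclusive results apart.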

System: S. cerevisiae Burl-1 ts mutant growth, BacTiter-Glo, 38.5C 24 h
Experiment: growth induction of Burl-1 ts yeast mutant, dose response, counter-screen for SUMOylation pathway inhibitor project, whole organism, S. cerevisiae, luminescence (AID 463199)

Row | SMILES | AC50
1 | CN(C(=O)COc1cc(=O)n(C)c2ccccc12)c1ccc(Cl)cc1 | > 42 µM (inactive)
2 | O=C(CN1CCN(C(=O)c2ccccc2)CC1)Nc1ncc(Br)cc1Br | > 42 µM (inactive)
3 | COCCn1c(-c2ccc(Cl)cc2)cnc1SCC(=O)NCCc1ccc(OC)c(OC)c1 | > 42 µM (inactive)
4 | CCC(=O)Nc1ccc(Br)c(Cl)c1 | > 42 µM (inactive)
5 | CS(=O)(=O)C1=NSC2=NC(=O)/C(=C\c3ccc(OS(=O)(=O)c4ccccc4)cc3)C(=N)N21 | > 42 µM (inactive)
6 | COc1ccc(NC(=O)CN2C(=O)c3ccccc3S2(=O)=O)cc1OC | > 42 µM (inactive)
7 | O=C(O)c1ccc(CNC(=O)c2ccccc2NC(=O)c2ccc([N+](=O)[O-])cc2)cc1 | > 42 µM (inactive)
8 | CN(C)CCOC(c1ccc(Cl)cc1)c1ccccn1 (stereo not given) | > 42 µM (inactive)
9 | CCOC(=O)c1ccc(NC(=O)CC2Sc3ncnn3C2=O)cc1 (stereo not given) | > 42 µM (inactive)
10 | COc1ccc([N+](=O)[O-])cc1NC(=O)C1CCCN1S(=O)(=O)c1cccs1 (stereo not given) | > 42 µM (inactive)
11 | COc1ccc(Nc2cc(NCCCO)c([N+](=O)[O-])c3nonc23)cc1 | > 42 µM (inactive)
12 | Cc1ccc(C(=O)N/C(=C/c2ccccc2)C(=O)NCC2CCCO2)cc1 (stereo not given) | > 21 µM (inactive)
13 | COc1ccc2c(c1)[C@H]1[C@H](CO2)[C@H](c2ccccc2)[C@]2(C)C(=O)Nc3cc(F)ccc3C(=O)N12 | > 42 µM (inactive)
14 | Cc1nn(C)c(Cl)c1CN1CCN(CCC(C)C)C(CCO)C1 (stereo not given) | > 42 µM (inactive)
15 | CCC12CN3CCN(CC(C3)/C1=N/NC(=O)c1ccncc1)C2 | > 42 µM (inactive)
16 | Cc1ccc(N(C(C)C(=O)O)S(=O)(=O)c2c(C)n[nH]c2C)cc1 (stereo not given) | > 42 µM (inactive)
17 | CCOc1ccc(N(CC(=O)NC2CCC(C)CC2)S(=O)(=O)c2c(C)noc2C)cc1 (stereo not given) | > 42 µM (inactive)
18 | CC1=C/C(=N\OS(=O)(=O)c2ccccc2)C(C(C)C)=CC1=O | > 42 µM (inactive)
19 | COc1ccc(C(=O)Sc2ccc(Cl)cc2)cc1OC | > 42 µM (inactive)
20 | CCOc1ccc(C(=O)NCC2OCCc3ccccc32)cc1 (stereo not given) | > 42 µM (inactive)
21 | Cc1ccc2nc(N/N=C/c3ccccc3F)nc(-c3ccccc3)c2c1 | > 42 µM (inactive)
22 | COc1ccc(N2CCN(C(=O)CNC(=O)Cc3ccc(Cl)cc3)CC2)cc1 | > 42 µM (inactive)
23 | COCc1[nH][nH]c(=O)c1C=Nc1ccc(OC(F)(F)F)cc1 | > 42 µM (inactive)
24 | CC(C)C1=CC(=Nc2ccc(S(N)(=O)=O)cc2)C=C(C(C)C)C1=O | > 42 µM (inactive)
25 | O=C(CSc1nccc(=O)[nH]1)c1cc2ccccc2o1 | > 42 µM (inactive)

Row | SMILES | AC50
26 | CC1(C)NC(=O)N(CCCOc2ccccc2Br)C1=O | > 42 µM (inactive)
27 | COc1ccc(/C=N/NC(=O)c2c(C)nc3ccccn23)cc1[N+](=O)[O-] | > 42 µM (inactive)
28 | Cc1ccnc(NC(c2cccnc2)c2ccc3cccnc3c2O)c1 (stereo not given) | > 42 µM (inactive)
29 | O=c1cc(C(F)(F)F)c2sc(N3CCCCC3)nc2[nH]1 | > 42 µM (inactive)
30 | COc1cccc(NC(=O)CNC(=O)c2ccc(C)cc2)c1 | > 42 µM (inactive)
31 | CC(C)c1cc(N2CCOCC2)n2ncc(-c3ccccc3)c2n1 | > 42 µM (inactive)
32 | CCCOC(=O)C1=C(C)NC2=C(C(=O)CCC2)C1c1cccs1 (stereo not given) | > 42 µM (inactive)
33 | Cc1nn(C)c(C)c1-c1c(C#N)c(N)nc2c1CCCCCC2 | > 42 µM (inactive)
34 | COc1ccc(NC(=O)CN(C)C(=O)/C=C/c2cn(-c3ccccc3)nc2-c2ccc(C)cc2)cc1 | > 42 µM (inactive)
35 | Cc1ccc2c(c1)N(CC(=O)NCC1CCCO1)C(=O)C(C)O2 (stereo not given) | > 42 µM (inactive)
36 | CC(C)Oc1ccc(CCC(=O)NNC(=O)c2ccccc2C(=O)O)cc1 | > 42 µM (inactive)
37 | C=CCNC(=O)c1cc(-c2cccnc2)nc2ccccc12 | > 42 µM (inactive)
38 | Cc1ccc(NC2CC(=O)N(c3ccc(N4CCCCC4)cc3)C2=O)cc1 (stereo not given) | > 21 µM (inactive)
39 | CCOCCCNC(=O)C(c1ccc(OC)cc1)N(Cc1ccc2c(c1)OCO2)C(=O)CNC(C)=O (stereo not given) | > 42 µM (inactive)
40 | O=C(O)C1CCCCC1C(=O)Nc1ccc(S(=O)(=O)N2CCCC2)cc1 (stereo not given) | > 42 µM (inactive)
41 | c1ccc(-c2csc(N3CCN(c4ccccn4)CC3)n2)cc1 | > 42 µM (inactive)
42 | CCOCCn1c(-c2ccc(OC)cc2)nc2ccccc21 | > 42 µM (inactive)
43 | O=C(CCC1CCCN(C(=O)Cc2cccc(F)c2)C1)N1CCN(c2ccccn2)CC1 (stereo not given) | > 42 µM (inactive)
44 | O=C(Nc1ccsc1C(=O)O)c1cccc(C(F)(F)F)c1 | > 42 µM (inactive)
45 | O=C1CN(C(=O)COC(=O)c2cccc(S(=O)(=O)NCc3ccccc3)c2)c2ccccc2N1 | > 42 µM (inactive)
46 | Cc1nc2ccccc2c(=O)n1CC(=O)N1CCOCC1 | > 42 µM (inactive)
47 | CCCc1nn2c(=O)cc(CSCC(=O)Nc3ccc(OC)cc3)nc2s1 | > 42 µM (inactive)
48 | CC1(C)C2CC=C(/C=N/NC(=S)Nc3cccnc3)C1C2 (stereo not given) | > 42 µM (inactive)
49 | CC(=O)Nc1ccc(S(=O)(=O)N(C)CC(=O)Nc2ccc(Br)cc2F)cc1 | > 42 µM (inactive)
50 | Cc1ccc(C(C(=O)Nc2ccc3c(c2)OCO3)N(C)C(=O)/C=C\c2ccc3c(c2)OCO3)cc1 (stereo not given) | > 42 µM (inactive)

Row | SMILES | AC50
51 | COC(=O)C1=C(C)N(Cc2ccccc2)C(=S)N[C@H]1c1cccc(F)c1 | > 42 µM (inactive)
52 | COc1cccc(-c2ocnc2C(=O)Nc2ccc3c(c2)CCC3)c1 | > 42 µM (inactive)
53 | O=C(Nc1ccc2ccccc2c1)N1CCCN(CCOc2ccccc2)CC1 | > 42 µM (inactive)
54 | Cc1sc2ncnc(N3CCC(C(=O)NNC(=O)COc4ccccc4F)CC3)c2c1C | > 42 µM (inactive)
55 | N#C/C(=N\Nc1cccc(F)c1)C(=N)N1CCCCCC1 | > 42 µM (inactive)
56 | N#Cc1cc2c(nc1SC1CCCCC1O)CCCC2 (stereo not given) | > 42 µM (inactive)
57 | Cc1cc(=O)n2[nH]c(-c3ccc(F)cc3)nc2n1 | > 42 µM (inactive)
58 | CCN(CC)c1ccc(C=C2C(=O)OC(c3ccccc3)OC2=O)cc1 (stereo not given) | > 42 µM (inactive)
59 | COc1ccc2[nH]c(C(=O)N/N=C/c3ccccc3OC)cc2c1 | > 42 µM (inactive)
60 | Cc1cc(C)cc(OCC(=O)NC2CCCc3ccccc32)c1 (stereo not given) | > 42 µM (inactive)
61 | COc1ccc(C2=NOC(Cn3nc(C(=O)NCc4cccs4)cc3-c3ccccc3)C2)cc1 (stereo not given) | > 42 µM (inactive)
62 | Cc1cccn2c(=O)c3cc(C(=O)NCCc4ccccc4)sc3nc12 | > 42 µM (inactive)
63 | N#CC1=C(N)OC2=C(C(=O)CCC2)C1C1CC=CCC1 (stereo not given) | > 42 µM (inactive)
64 | O=C1CCCN1CCC(=O)N1CCCC(N2CCN(c3ccccc3F)CC2)C1 (stereo not given) | > 42 µM (inactive)
65 | CN(C)/C=C/C(=O)c1ccncc1 | > 42 µM (inactive)
66 | c1ccc2nc3c(nc2c1)OCC1CCCCN31 (stereo not given) | > 42 µM (inactive)
67 | Nc1ccc(N2CCN(c3ccc(F)cc3)CC2)cc1 | > 42 µM (inactive)
68 | COc1cc(/C=N/NC(=O)c2cccnc2)ccc1OCC(=O)N1CCOCC1 | > 42 µM (inactive)
69 | O=C(CCCC(=O)N/N=C/c1ccccc1C(=O)O)N/N=C/c1ccccc1C(=O)O | > 42 µM (inactive)
70 | CCn1cc(CCCC(=O)NCc2ccccc2OC)c2ccccc21 | > 42 µM (inactive)
71 | Cc1cc([N+](=O)[O-])nn1CC(=O)NNC(=S)Nc1ccc([N+](=O)[O-])cc1 | > 21 µM (inactive)
72 | C/C(=N\NC(=O)c1ccc(Cl)cc1)c1cccnc1 | > 42 µM (inactive)
73 | CCOc1ccc2nc(C(C)O)[nH]c2c1 (stereo not given) | > 42 µM (inactive)
74 | CCc1ccc(N2C(=O)CC(N3CCC(C(=O)OC)CC3)C2=O)cc1 (stereo not given) | > 42 µM (inactive)
75 | O=C(NC(=S)Nc1ccccc1N1CCCC1)c1ccc([N+](=O)[O-])cc1 | > 42 µM (inactive)

Row | SMILES | AC50
76 | CCCCn1c(N)c(N(CCOC)C(=O)c2cnccn2)c(=O)[nH]c1=O | > 42 µM (inactive)
77 | CC(C)(C)C(=O)Nc1ccc(C(=O)NCc2cccnc2)cc1 | > 42 µM (inactive)
78 | CC(NC(=O)C1CCCN(S(=O)(=O)N2CCOCC2)C1)c1ccccc1 (stereo not given) | > 42 µM (inactive)
79 | CN(C(=S)NC1=CCS(=O)(=O)C1)C1CCCCC1 | > 42 µM (inactive)
80 | Cc1cccc(/C=N/NC(=O)Cc2cccs2)c1 | > 42 µM (inactive)
81 | NNC(=O)c1[nH]c2ccccc2c1-c1ccccc1 | > 42 µM (inactive)
82 | O=C(NC(=S)NNC(=O)c1ccccc1O)c1cccc([N+](=O)[O-])c1 | > 42 µM (inactive)
83 | COCc1nnc(NC(=O)CC(C)C)s1 | > 42 µM (inactive)
84 | CCCCC1=CC2=CC(=O)C(C)(OC(=O)CC)C(=O)C2=CN1CCc1ccc(Br)cc1 (stereo not given) | > 42 µM (inactive)
85 | CC(C)(CNC(=O)c1cccs1)CNC(=O)c1cccs1 | > 42 µM (inactive)
86 | O=C(CSc1nnc(CNC(=O)c2ccccc2)o1)NCc1ccco1 | > 42 µM (inactive)
87 | Cc1cc(C)cc(NC(=O)CS(=O)(=O)c2ccccc2)c1 | > 42 µM (inactive)
88 | Cc1ccccc1NC(=O)c1ccccc1NC(=O)c1ccco1 | > 42 µM (inactive)
89 | CC(C)=CC(=O)N1CCCC(N2CCN(c3ccc(F)cc3)CC2)C1 (stereo not given) | 2.02 µM
90 | Nc1cc(=O)[nH]c(=O)n1CCc1ccccc1 | > 42 µM (inactive)
91 | O=S(=O)(Nc1ccc(-c2nc3cccnc3s2)cc1)c1cc(F)ccc1F | > 42 µM (inactive)
92 | Fc1ccc2c(c1)nnn2C1CCN(Cc2nnnn2C2CCCCC2)CC1 | > 42 µM (inactive)
93 | COCCN(C(=O)c1csnn1)C(C(=O)NC1CCCCC1)c1ccccc1 (stereo not given) | > 42 µM (inactive)
94 | COc1cccc(OC)c1C(=O)Nc1ccc2c(c1)n(C)c(=O)n2C | > 42 µM (inactive)
95 | O=C(O)CNS(=O)(=O)Cc1ccccc1 | > 42 µM (inactive)
96 | O=C(CCSc1ccccc1)Nc1ncccn1 | > 42 µM (inactive)
97 | CCOc1ccc(-c2nc3n(c(=O)c2C#N)CCS3)cc1 | 40.7 µM
98 | CCN(CC)c1ccc(N=Cc2c(O)n(Cc3ccccc3)c(=O)[nH]c2=O)cc1 | > 42 µM (inactive)
99 | O=C(NCCCn1ccnc1)Nc1cccc2ccccc12 | > 42 µM (inactive)
100 | CCCN1C(=O)c2[nH]nc(-c3cc(Cl)c(C)cc3O)c2C1c1ccc(O)c(OC)c1 (stereo not given) | > 42 µM (inactive)
